Key:
diarrhea = details: rats, literature (Fittkau et al. 2004); cited from earlier work
E. coli β-glucuronidase = E. coli β-glucuronidase (Escherichia coli, UniProt P05804); format: biochemical; design: The full-length E. coli β-glucuronidase gene was obtained from bacterial genomic DNA; 6xHis (N); made in house; host or cells: E. coli BL21-DE3; details: in vitro, using PNPG
Description: (§1) Thus, two other β-glucuronidase activity assays were employed to examine the potency of inhibitors both in vitro and in cell-based studies. An absorbance assay based on the conversion of p-nitrophenyl glucuronide (PNPG) to p-nitrophenol (PNP) (Szasz (1967) Clin Chem 13:752-759), which absorbs at 410 nm, was employed as the primary in vitro assay (FIG. 9). A secondary assay involving the conversion of phenolphthalein glucuronide (PheG) to phenolphthalein (Phe), which absorbs at 540 nm, was also employed (FIG. 9). Id.
In vitro assays were conducted at 50 μL total volume in 96-well, clear bottom assay plates (Costar). Substrates consisted of PNPG or PheG (FIG. 9) and were acquired from Sigma. The presence of the hydrolysis product of each, PNP or Phe, was measured by absorbance at 410 nm or 540 nm, respectively. […] Absorbance was measured using a PHERAstar Plus microplate reader (BMG Labtech).
In vitro assays were conducted at 50 μL total volume in 96-well, clear bottom assay plates (Costar). […] The presence of the hydrolysis product of each, p-nitrophenol (PNP) and phenolphthalein (Phe), was measured by absorbance at 410 nm or 540 nm, respectively. […] Absorbance was measured using a PHERAstar Plus microplate reader (BMG Labtech). Data acquired was analyzed using Microsoft Excel and Sigmaplot 11.0.

[1] = molecular target: β-glucuronidase activity in living E. coli cells (Escherichia coli, UniProt P05804); format: cell-based; design: The full-length E. coli β-glucuronidase gene was obtained from bacterial genomic DNA; expressed in transfected cells; host or cells: E. coli HB101 transformed with pET-28a-GUS
Description: as §1
HB101 E. coli cells were grown to an OD600 of 0.6 in LB medium. These cells were then used for an in vivo assay. Reaction time and temperature were the same as previously described (see In Vitro β-Glucuronidase Assays). […] Absorbance was measured at the appropriate wavelength, depending on the substrate. […]
HB101 E. coli cells, transformed with the pET-28a vector containing the β-Glucuronidase gene, were grown to an OD600 of 0.6 in LB medium. […] Absorbance was measured at the appropriate wavelength, either 410 nm or 540 nm. Cell survivability in the presence of the nine inhibitors was assessed by plating a 10^−5 dilution of 200 μl of saturated cells after incubation with 100 μM of each inhibitor for 6 hours. […] Plated cells were allowed to incubate at 37° C. overnight, and colonies were counted to quantify the viability of the cells.

β-glucuronidase activity in living E. coli cells, sequence (P05804 whole entry): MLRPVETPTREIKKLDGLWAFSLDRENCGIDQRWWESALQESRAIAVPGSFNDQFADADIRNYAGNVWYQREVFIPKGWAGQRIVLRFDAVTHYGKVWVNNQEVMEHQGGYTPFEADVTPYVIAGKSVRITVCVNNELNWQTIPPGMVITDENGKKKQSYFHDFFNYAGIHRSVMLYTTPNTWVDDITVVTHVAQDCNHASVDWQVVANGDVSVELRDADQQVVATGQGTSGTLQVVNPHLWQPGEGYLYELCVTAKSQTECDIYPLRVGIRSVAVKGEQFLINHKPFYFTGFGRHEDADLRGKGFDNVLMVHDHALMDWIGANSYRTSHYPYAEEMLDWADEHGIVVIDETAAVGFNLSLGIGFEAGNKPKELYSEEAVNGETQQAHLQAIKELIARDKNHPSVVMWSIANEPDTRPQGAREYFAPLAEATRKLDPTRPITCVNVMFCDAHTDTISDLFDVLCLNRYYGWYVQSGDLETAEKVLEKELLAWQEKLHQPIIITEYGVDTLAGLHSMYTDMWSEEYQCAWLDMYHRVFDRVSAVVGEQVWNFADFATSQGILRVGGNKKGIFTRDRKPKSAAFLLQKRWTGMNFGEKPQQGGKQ
E. coli β-glucuronidase, sequence (P05804 whole entry): as above

Row | SMILES | reversal of CPT-11 diarrhea / epithelial cell death (diarrhea) | IC50 (E. coli β-glucuronidase) [µM] | efficacy in living cells [1]
1 | O=C1OC(C(O)C(=O)O)C(O)C1O (stereo not drawn) [saccharic acid 1,4-lactone] | partially reversed | – | –
2 | O=C(O)[C@H]1NC(=O)[C@H](O)[C@@H](O)[C@@H]1O [GDL, glucaro-δ-lactam, reference compound] | – | 45 ± 3.1 | ineffective

Source: patent publication US9334288B2, “Selective β-glucuronidase inhibitors as a treatment for side effects of camptothecin antineoplastic agents” (The University of North Carolina at Chapel Hill, priority 2009, dated 2016)
